Laboratory results taken from patent US8202856B2 (Merck Serono SA, priority 2007, dated 2012).
Counter-ions that a name gives are not always drawn.

What was measured:
[1] = target: S1P1 receptor (Homo sapiens, UniProt P21453); test: 35S-GTPγS binding, membranes from CHO cells expressing S1P1; assay type: biochemical; details: CHO cell membranes expressing S1P1
How it was run: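 Membranes (1–10 μg) from CHO cells expressing the receptor were incubated with compound in 20 mM HEPES pH 7.4, 10 mM MgCl2, 140 mM NaCl, 1.7 μM GDP, saponin and 0.2% BSA. [35S]GTPγS (added at 1.5 nM) was then bound for 60 min at 30 °C. Membrane-bound radioactivity, averaged over triplicates, is expressed relative to S1P activation (n=2).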

[2] = target: S1P3 receptor (Homo sapiens, UniProt Q99500); test: 35S-GTPγS binding, membranes from CHO cells expressing S1P3; assay type: biochemical; details: CHO cell membranes expressing S1P3
Sequence of S1P3 receptor (Q99500 whole entry): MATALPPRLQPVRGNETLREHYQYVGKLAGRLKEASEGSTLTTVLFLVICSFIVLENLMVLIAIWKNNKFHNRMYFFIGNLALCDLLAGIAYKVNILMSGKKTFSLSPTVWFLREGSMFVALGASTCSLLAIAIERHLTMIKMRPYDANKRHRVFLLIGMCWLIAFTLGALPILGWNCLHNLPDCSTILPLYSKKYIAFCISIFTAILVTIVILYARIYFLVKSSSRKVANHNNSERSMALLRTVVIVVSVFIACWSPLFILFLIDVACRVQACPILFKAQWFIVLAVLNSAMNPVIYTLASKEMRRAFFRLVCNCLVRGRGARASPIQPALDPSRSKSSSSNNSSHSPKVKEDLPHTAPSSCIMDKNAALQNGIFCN
Experimental: Receptor binding assay: Membranes were prepared from CHO cells expressing S1P1 or S1P3 for use in ligand and 35S-GTPTS binding studies. Cells were suspended in 50 mM TRIS, pH 7.4, 2 mM EDTA, 250 mM Sucrose (buffer A) and 1× Complete protease inhibitor cocktail (Roche), and disrupted at 4° C. by nitrogen decompression using a cell disruption bomb (Parr Instrument). Following centrifugation at 1000 RPM for 10 min at 4° C., the supernatant was suspended in buffer A and centrifuged again at 19000 RPM for 60 min at 4° C. The pellet was then suspended in 10 mM HEPES, pH 7.4, 1 mM EDTA, 250 mM Sucrose (Buffer B), and 1× Complete EDTA-free protease inhibitor cocktail and homogenized using a potter. Membranes were flash frozen in liquid nitrogen and stored at −80° C. [33P]sphingosine 1-phosphate (3000 Ci/mmol; American Radiolabeled Chemicals, Inc.) was added to test compounds in DMSO. Membranes and WGA SPA beads (GE Healthcare) were added to give a final volume of 100 μl in 96-well plates with assay concentrations of […] [33P]sphingosine 1-phosphate (respectively for S1P1 or S1P3), 50 mM HEPES, pH 7.5, 5 mM MgCl2, 100 mM NaCl, 0.4% fatty acid-free BSA, 1-5 μg/well of proteins and 100 μg/well of WGA SPA beads. Binding was performed for 60 min at room temperature on a shaker and bound radioactivity was measured on a PerkinElmer 1450 MicroBeta counter. Specific binding was calculated by subtracting remaining radioactivity in the presence of 1000-fold excess of unlabeled S1P. Binding data were analyzed using the GraphPad Prism program.
Measurements of ^35S-GTPγS Binding: Membranes (1 to 10 μg protein) prepared as described above, were incubated in 96-well Scintiplates (PerkinElmer) with test compounds diluted in DMSO, in 180 μl of 20 mM HEPES, pH 7.4, 10 mM MgCl2, 2 μg/well Saponin, 0.2% fatty acid free BSA (Assay buffer), 140 mM NaCl and 1.7 μM GDP. The assay was initiated with the addition of 20 μl of 1.5 nM [35S]-GTPγS (1100 Ci/mmol; GE Healthcare) in assay buffer. After 60 min incubation at 30° C. on a shaker, plates were centrifuged for 10 min at 2000 RPM. Supernatant was discarded and membrane bound radioactivity was measured on a PerkinElmer 1450 MicroBeta counter. Triplicate samples were averaged and expressed as response relative to S1P activation in absence of compound (n=2).

Sequence of S1P1 receptor (P21453 whole entry): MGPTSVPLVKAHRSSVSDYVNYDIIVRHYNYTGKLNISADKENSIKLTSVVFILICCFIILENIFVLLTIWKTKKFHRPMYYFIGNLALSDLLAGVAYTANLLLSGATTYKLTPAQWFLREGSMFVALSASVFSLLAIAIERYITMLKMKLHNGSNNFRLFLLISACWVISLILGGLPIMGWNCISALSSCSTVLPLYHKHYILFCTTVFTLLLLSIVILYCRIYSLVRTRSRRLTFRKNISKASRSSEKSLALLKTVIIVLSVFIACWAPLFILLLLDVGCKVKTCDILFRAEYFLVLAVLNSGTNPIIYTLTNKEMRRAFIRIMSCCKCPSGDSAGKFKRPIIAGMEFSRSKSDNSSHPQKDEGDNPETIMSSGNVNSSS

SMILES	EC50 [1]	EC50 [2]
Fc1ccccc1-c1noc(-c2nnn(-c3ccccc3F)c2-c2cccnc2)n1 [Example 25, 3-{1-(2-Fluorophenyl)-4-[3-(2-fluorophenyl)-1,2,4-oxadiazole-5-yl]-1H-1,2,3-triazole-5-yl}pyridine]	272 nM	> 20000 nM
Fc1ccccc1-n1nnc(-c2nc(-c3cccc(Cn4cncn4)c3)no2)c1-c1ccncc1 [Example 61, 4-(1-(2-fluorophenyl)-4-{3-[3-(1H-1,2,4-triazol-1-ylmethyl)phenyl]-1,2,4-oxadiazol-5-yl}-1H-1,2,3-triazol-5-yl)pyridine]	182 nM	> 20000 nM
Fc1ccccc1-c1noc(-c2nnn(-c3ccccc3F)c2-c2ccccn2)n1 [Example 27, 2-{1-(2-Fluorophenyl)-4-[3-(2-fluorophenyl)-1,2,4-oxadiazole-5-yl]-1H-1,2,3-triazole-5-yl}pyridine]	188 nM	2890 nM
COCc1c(-c2nc(-c3ccc4[nH]ccc4c3)no2)nnn1-c1ccccc1F [Example 65, 5-{5-[1-(2-fluorophenyl)-5-(methoxymethyl)-1H-1,2,3-triazol-4-yl]-1,2,4-oxadiazol-3-yl}-1H-indole]	119 nM	> 20000 nM
Fc1ccc(F)c(-c2noc(-c3nnn(-c4ccccc4F)c3CN3CCOCC3)n2)c1 [Example 39, 4-{[4-[3-(2,5-difluorophenyl)-1,2,4-oxadiazol-5-yl]-1-(2-fluorophenyl)-1H-1,2,3-triazol-5-yl]methyl}morpholine]	92 nM	741 nM
COCc1c(-c2nc(-c3cccc(S(C)(=O)=O)c3)no2)nnn1-c1ccccc1F [Example 68, 5-[1-(2-fluorophenyl)-5-(methoxymethyl)-1H-1,2,3-triazol-4-yl]-3-[3-(methylsulfonyl)phenyl]-1,2,4-oxadiazole]	594 nM	> 20000 nM
Fc1ccccc1-c1noc(-c2nnn(-c3ccccc3F)c2C2CCOCC2)n1 [Example 59, 3-(2-fluorophenyl)-5-[1-(2-fluorophenyl)-5-(tetrahydro-2H-pyran-4-yl)-1H-1,2,3-triazol-4-yl]-1,2,4-oxadiazole]	154 nM	> 20000 nM
Fc1ccc(F)c(-c2noc(-c3nnn(-c4ccccc4F)c3C3CC3)n2)c1 [Example 69, 5-[5-cyclopropyl-1-(2-fluorophenyl)-1H-1,2,3-triazol-4-yl]-3-(2,5-difluorophenyl)-1,2,4-oxadiazole]	116 nM	> 20000 nM
O=C(O)c1ccc(-c2noc(-c3nnn(-c4ccccc4F)c3-c3ccccc3)n2)c(F)c1 [Example 33, 3-Fluoro-4-{5-[1-(2-fluorophenyl)-5-phenyl-1H-1,2,3-triazole-4-yl]-1,2,4-oxadiazole-3-yl}benzoic acid]	501 nM	> 20000 nM
COCCc1c(-c2nc(-c3cccnc3)no2)nnn1-c1ccccc1F [Example 46, 3-{5-[1-(2-fluorophenyl)-5-(2-methoxyethyl)-1H-1,2,3-triazol-4-yl]-1,2,4-oxadiazol-3-yl}pyridine]	516 nM	> 20000 nM
Cc1c(-c2nc(-c3ccccc3)no2)nnn1-c1ccccc1F [Example 34, 5-[1-(2-fluorophenyl)-5-methyl-1H-1,2,3-triazol-4-yl]-3-phenyl-1,2,4-oxadiazole]	1100 nM	> 30000 nM
COc1ccccc1-c1noc(-c2nnn(-c3ccccc3F)c2-c2ccccc2)n1 [Example 22, 5-[1-(2-Fluorophenyl)-5-phenyl-1H-1,2,3-triazole-4-yl]-3-(2-methoxyphenyl)-1,2,4-oxadiazole]	140 nM	6860 nM
Fc1ccc(F)c(-c2noc(-c3nnn(-c4ccccc4F)c3CN3CCCC3)n2)c1 [Example 92, 3-(2,5-difluorophenyl)-5-[1-(2-fluorophenyl)-5-(pyrrolidin-1-ylmethyl)-1H-1,2,3-triazol-4-yl]-1,2,4-oxadiazole]	92 nM	> 20000 nM
CCCCc1c(-c2nc(-c3ccccc3F)no2)nnn1-c1ccccc1F [Example 16, 5-5-[5-Butyl-1-(2-fluorophenyl)-1H-1,2,3-triazole-4-yl]-3-(2-fluorophenyl)-1,2,4-oxadiazole]	158 nM	7360 nM
COC(=O)c1cccc(-c2noc(-c3nnn(-c4ccccc4F)c3-c3ccccc3)n2)c1 [Example 20, Methyl 3-{5-[1-(2-fluorophenyl)-5-phenyl-1H-1,2,3-triazole-4-yl]-1,2,4-oxadiazole-3-yl}benzoate]	84 nM	8550 nM

Compounds with a lower EC50 [1], results first:

EC50 [1]	EC50 [2]	SMILES
53 nM	> 30000 nM	Fc1ccc(-c2noc(-c3nnn(-c4ccccc4F)c3-c3ccccc3)n2)c(F)c1 [Example 11, 3-(2,4-Difluorophenyl)-5-[1-(2-fluorophenyl)-5-phenyl-1H-1,2,3-triazole-4-yl]-1,2,4-oxadiazole]
46 nM	> 20000 nM	Fc1ccc(F)c(-c2noc(-c3nnn(-c4ccccc4F)c3C3CCOCC3)n2)c1 [Example 62]
45 nM	> 30000 nM	COCc1c(-c2nc(-c3cc(F)ccc3F)no2)nnn1-c1ccccc1F [Example 10, 3-(2,5-Difluorophenyl)-5-[1-(2-fluorophenyl)-5-(methoxymethyl)-1H-1,2,3-triazole-4-yl]-1,2,4-oxadiazole]
41 nM	> 30000 nM	Fc1ccccc1-n1nnc(-c2nc(-c3cccc(C(F)(F)F)c3)no2)c1-c1ccccc1 [Example 21, 5-[1-(2-Fluorophenyl)-5-phenyl-1H-1,2,3-triazole-4-yl]-3-[3-(trifluoromethyl)phenyl]-1,2,4-oxadiazole]
38 nM	2270 nM	NCc1ccc(-c2noc(-c3nnn(-c4ccccc4F)c3-c3ccncc3)n2)cc1 [Example 80, 1-(4-{5-[1-(2-fluorophenyl)-5-pyridin-4-yl-1H-1,2,3-triazol-4-yl]-1,2,4-oxadiazol-3-yl}phenyl)methanamine hydrochloride]
22 nM	221 nM	Oc1ccc(-c2noc(-c3nnn(-c4ccccc4F)c3-c3ccccc3)n2)c(F)c1 [Example 18, 3-Fluoro-4-{5-[1-(2-fluorophenyl)-5-phenyl-1H-1,2,3-triazole-4-yl]-1,2,4-oxadiazole-3-yl}phenol]
17 nM	242 nM	Fc1cccc(-c2noc(-c3nnn(-c4ccccc4F)c3-c3ccncc3)n2)c1 [Example 83, 4-{1-(2-fluorophenyl)-4-[3-(3-fluorophenyl)-1,2,4-oxadiazol-5-yl]-1H-1,2,3-triazol-5-yl}pyridine]
14 nM	660 nM	Cc1cccc(-c2noc(-c3nnn(-c4ccccc4F)c3-c3ccncc3)n2)c1 [Example 104, 4-{1-(2-fluorophenyl)-4-[3-(3-methylphenyl)-1,2,4-oxadiazol-5-yl]-1H-1,2,3-triazol-5-yl}pyridine]
13 nM	835 nM	OC1CCN(Cc2ccc(-c3noc(-c4nnn(-c5ccccc5F)c4-c4ccncc4)n3)cc2)C1 (stereo not drawn) [Example 142, 1-(4-{5-[1-(2-fluorophenyl)-5-pyridin-4-yl-1H-1,2,3-triazol-4-yl]-1,2,4-oxadiazol-3-yl}benzyl)pyrrolidin-3-ol]
9 nM	214 nM	Fc1ccccc1-n1nnc(-c2nc(-c3cccc(F)c3F)no2)c1-c1ccncc1 [Example 101, 4-[4-[3-(2,3-difluorophenyl)-1,2,4-oxadiazol-5-yl]-1-(2-fluorophenyl)-1H-1,2,3-triazol-5-yl]pyridine]
8 nM	2530 nM	O=C(O)C1CCN(Cc2ccc(-c3noc(-c4nnn(-c5ccccc5F)c4-c4ccncc4)n3)cc2)CC1 [Example 128, 1-(4-{5-[1-(2-fluorophenyl)-5-pyridin-4-yl-1H-1,2,3-triazol-4-yl]-1,2,4-oxadiazol-3-yl}benzyl)piperidine-4-carboxylic acid]
7 nM	14000 nM	Fc1ccc(F)c(-c2noc(-c3nnn(-c4ccccc4F)c3-c3ccccc3)n2)c1 [Example 12, 3-(2,5-Difluorophenyl)-5-[1-(2-fluorophenyl)-5-phenyl-1H-1,2,3-triazole-4-yl]-1,2,4-oxadiazole]
